Test results reported in patent US20140100290A1, “Method of treating a prostate condition” (priority 2012, published 2014).
Where two headings read alike, the source gives them in different places.

Key:
[1] = system: LNCaP cells; experiment: Phosphatidylserine externalization by fluorescence microscopy (PSVue 480) in LNCaP cells; assay type: cell-based, Human; conditions: 10 μM and 1000 μM, 48 hours, dose-dependent
Description: (§1) Human metastatic prostate cancer cells, LNCaP, were obtained from ATCC (Manassas, Va., USA). Cells were grown in RPMI-1640 medium supplemented with 2mM glutamine, 10% FBS, 100 U/mL penicillin, and 100 μg/mL streptomycin. LNCaP cells were maintained in a humidified atmosphere of 5% CO2 at 37° C. in T-75 flasks and were subcultured when confluent. Experiments were conducted using cells with passage numbers ranging from 5-20.
One of the earliest events to occur in apoptosis or programmed cell death is the externalization of phosphatidylserine (PS), a membrane phospholipid restricted to the inner leaflet of the lipid bilayer. Redistribution of PS from the inner leaflet to the outer leaflet occurs in cells undergoing apoptosis. The PSVue™ 480 reagent kit was used to perform the phosphatidylserine (PS) externalization assay. The principle behind this assay involves a strong binding of PSVue™ 480 (fluorescent probe) to the anionic PS residues exposed on the surface of the apoptotic cells by its Zn (II)-dipicolylamine (Zn-DPA) functionality, making it a useful apoptotic sensor.
To detect PS externalization, LNCaP cells were seeded as 0.5×10^6 cells/well in flat-bottom, 6-well microtiter plates. After 24 hours of incubation at 37° C., cells were treated with 10 μM and 1000 μM of carvacrol for 48 hours. […]

[2] = system: LNCaP cells; experiment: DNA fragmentation assay (Apoptotic DNA-Ladder Kit) in LNCaP cells; assay type: cell-based, Human; conditions: 10 μM and 1000 μM, 48 hours
Description: as §1
During apoptosis, pro-apoptotic proteins such as apoptosis-inducing factor (AIF), endonuclease G, and caspase-activated DNase (CAD) are released from the mitochondria, which occur after the cell has committed to die. AIF, after translocation to the nucleus, causes DNA fragmentation (˜50-300 kb pieces) and peripheral nuclear chromatin condensation which is referred to as “stage 1” condensation. Endonuclease G also cleaves nuclear chromatin to produce oligonucleosomal DNA fragments following its translocation to the nucleus. Both, AIF and endonuclease G function in caspase-independent manner. CAD subsequently released from mitochondria, after getting cleaved by activated caspase-3, is known to translocate into the nucleus leading to oligonucleosomal cleavage of DNA into 180 by fragments and a more pronounced chromatin condensation referred to as “stage 11” condensation.
This cleaved DNA is easily observed as a “ladder” upon analysis by gel electrophoresis. […]

[3] = system: PC-3 cells; experiment: XTT cell proliferation (cell viability) assay in PC-3 cells; assay type: cell-based; conditions: Homo sapiens, mean±S.E.M., read-out: IC50 (anti-proliferative activity, XTT)
Description: (§2) Cell Line and Culture Conditions • Human metastatic, androgen insensitive prostate cancer cells, PC-3, were obtained from ATCC (Manassas, Va., USA). Cells were grown in F-12K medium supplemented with 2 mM glutamine, 10% FBS, 100 U/mL penicillin, and 100 μg/mL streptomycin. PC-3 cells were maintained in a humidified atmosphere of 5% CO2 at 37° C. in T-75 flasks and were subcultured when confluent.
The anti-proliferative effect of carvacrol was assessed in PC-3 cells using the XTT cell proliferation assay. This assay is a colorimetric assay that is used to measure cell growth and drug sensitivity in tumor cell lines by measuring the internal environment of the proliferating cell, which is more reduced than that of non-proliferating cells. In this assay, the second generation tetrazolium dye, XTT (2,3-bis(2-methoxy-4-nitro-5-sulfophenyl)-5-[(phenylamino)-carbonyl]-2H tetrazolium hydroxide), is reduced to a soluble, brightly orange colored formazan derivative. To improve the sensitivity of XTT assay, PMS (N-methyl dibenzopyrazine methyl sulfate), an intermediate electron carrier is used. This color change is accomplished by breaking apart the positively charged quaternary tetrazole ring. An expansion in the number of viable cells results in an increase in the overall activity of mitochondrial dehydrogenases in the sample. […]
PC-3 cells at a density of 10^4 cells/well were seeded into flat-bottom, 96-well microtiter plates (100 μL/well) and allowed to attach and grow for 24 h. […] After incubation, an orange colored formazan product was formed and the absorbance was measured at 475 nm using BioTek microplate reader. […] Cell viability of the drug-treated cells was calculated as a fraction of solvent control and the anti-proliferative activity of carvacrol was expressed in terms of IC50 values. IC50 values were calculated using GraphPad Prism 4 (Graph Pad Software Inc., Calif., USA), and expressed as the means±S.E.M. of n≧3 experiments (each in triplicate).

[4] = system: PC-3 cells; experiment: Morphological analysis of PC-3 cells; assay type: cell-based, Human; conditions: 10 μM and 1000 μM, 48 h
Description: as §2
These typical features of apoptosis were used to evaluate the mechanism of decreased cell proliferation by carvacrol in PC-3 cells.
In order to identify the morphological changes in PC-3 cells after treatment with carvacrol, 2×10^6 cells/well were seeded in flat-bottom, 6-well microtiter plates, allowed to grow for 24 h, then treated with 10 μM and 1000 μM of carvacrol, and incubated further for 48 h at 37° C. After incubation, cells were washed twice with PBS, and microscopic photographs of morphological changes of the cells were captured using a fluorescent microscope, Axiovert 200M (Carl Zeiss MicroImaging Inc, NY, USA). 1.15% EtOH was used as a solvent control.

SMILES: Cc1ccc(C(C)C)cc1O [Carvacrol]
- externalization of phosphatidylserine residues (PSVue 480 positive cells) [1]: showed externalization of phosphatidylserine residues
- fragmentation of DNA [2]: Fragmentation of DNA was observed
- IC50 ([3]; 24 hr treatment): 2250 ± 79.8 µM
- IC50 ([3]; 48 hr treatment): 1400 ± 98.2 µM
- IC50 ([3]; 96 hr treatment): 1010 ± 63.5 µM
- morphological changes (features of apoptosis) [4]: exhibited typical features of apoptosis like rounding of cells, membrane blebbing, and cell shrinkage
